According to publication PMC8842224 (Journal of Medicinal Chemistry, 2022):
Read-outs that look alike come from different tables or passages of the source.

Key:
human A1AR = target: T1, human A1AR (Homo sapiens, UniProt P30542); details: for Exp absolute binding affinity (ΔGbind): experimental, A1AR
T1 sequence (P30542 1-326): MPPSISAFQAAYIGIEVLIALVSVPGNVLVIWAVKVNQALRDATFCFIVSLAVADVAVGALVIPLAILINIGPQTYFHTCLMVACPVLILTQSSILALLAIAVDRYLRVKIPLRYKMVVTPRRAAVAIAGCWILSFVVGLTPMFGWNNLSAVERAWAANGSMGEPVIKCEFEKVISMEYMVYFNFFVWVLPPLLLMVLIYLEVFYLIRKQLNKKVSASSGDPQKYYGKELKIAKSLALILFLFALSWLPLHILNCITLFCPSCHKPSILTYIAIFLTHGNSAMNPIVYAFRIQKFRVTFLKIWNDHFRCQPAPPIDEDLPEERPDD

human A2AAR = human A2AAR (Homo sapiens, UniProt P29274)
human A2AAR, sequence (P29274 whole entry): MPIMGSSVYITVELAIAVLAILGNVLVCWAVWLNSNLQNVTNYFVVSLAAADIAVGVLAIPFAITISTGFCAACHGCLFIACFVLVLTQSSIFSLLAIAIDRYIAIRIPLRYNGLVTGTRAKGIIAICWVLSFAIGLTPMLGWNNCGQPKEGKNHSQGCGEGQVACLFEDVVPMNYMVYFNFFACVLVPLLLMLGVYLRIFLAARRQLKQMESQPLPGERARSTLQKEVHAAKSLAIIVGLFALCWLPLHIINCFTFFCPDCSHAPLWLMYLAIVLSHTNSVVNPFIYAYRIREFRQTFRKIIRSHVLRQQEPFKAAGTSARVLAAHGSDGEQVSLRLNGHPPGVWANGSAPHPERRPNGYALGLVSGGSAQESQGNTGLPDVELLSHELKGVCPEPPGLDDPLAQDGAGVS

human A2BAR = target: T2, human A2BAR (Homo sapiens, UniProt P29275); details: read-out: hA2B Ki; displacement of specific [3H]DPCPX binding, human HEK-293 cells, ± SEM, n = 3
T2 sequence (P29275 1-332): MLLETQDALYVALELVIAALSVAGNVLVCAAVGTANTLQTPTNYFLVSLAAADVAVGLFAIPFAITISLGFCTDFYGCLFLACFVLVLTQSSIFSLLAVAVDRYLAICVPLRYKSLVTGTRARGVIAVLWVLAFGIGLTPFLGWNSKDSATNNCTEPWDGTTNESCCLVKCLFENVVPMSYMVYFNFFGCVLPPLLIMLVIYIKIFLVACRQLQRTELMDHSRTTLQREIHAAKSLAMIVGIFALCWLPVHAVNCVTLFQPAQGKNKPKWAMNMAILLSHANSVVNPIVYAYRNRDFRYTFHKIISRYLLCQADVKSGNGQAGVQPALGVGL

[1] = read-out: hA1 Ki, displacement of specific [3H]DPCPX binding, human CHO cells, ± SEM, n = 3
[2] = read-out: hA2A Ki, displacement of specific [3H]ZM241385 binding, human HeLa cells, ± SEM, n = 3
[3] = read-out: ki_a1, supplementary csv, unit inferred
[4] = read-out: ki_a2a, supplementary csv, unit inferred

Row | SMILES | Ki (human A1AR; [1]) [nM] | Ki (human A2AAR; [2]) [nM] | other results
1 | N#Cc1c(-c2ccccc2)nc(N)nc1-c1ccc(O)cc1 [18m] | 4.14 ± 0.55 | 26.5 ± 1.6 | –
2 | N#Cc1c(-c2ccccc2)nc(Nc2ccccc2)nc1-c1ccoc1 [19ay] | – | 368 | –
3 | CNc1nc(-c2ccccc2)c(C#N)c(-c2cccc(C#N)c2)n1 [19s] | 2.99 ± 0.71 | 78.5 ± 6.7 | Exp relative binding affinity (ΔΔGbind) (human A1AR; Lig 2 relative to Lig 1 = 19a): -0.66 kcal/mol; Exp absolute binding affinity (ΔGbind) (human A1AR): -11.62 kcal/mol; Ki (human A2BAR): 34.6 ± 5.7 nM
4 | N#Cc1c(-c2ccccc2)nc(Nc2ccccc2)nc1-c1cccs1 [19aw] | 42.3 ± 4.6 | 330 ± 27 | –
5 | N#Cc1c(-c2ccccc2)nc(N)nc1-c1ccncc1 [18ab] | 216 ± 23 | 676 ± 27 | Ki (human A1AR; [3]): 216 nM; Ki (human A2AAR; [4]): 677 nM
6 | COc1cc(OC)cc(-c2nc(Nc3ccccc3)nc(-c3ccccc3)c2C#N)c1 [19an] | – | 17.3 ± 1.9 | Ki (human A2BAR): 64 ± 9.6 nM
7 | COc1cccc(-c2nc(N)nc(-c3ccccc3)c2C#N)c1 [18g] | 2.08 ± 0.16 | 6.91 ± 1.52 | Ki (human A2BAR): 31.2 ± 6.3 nM
8 | N#Cc1c(-c2ccccc2)nc(Nc2ccccc2)nc1-c1ccccc1 [19c] | 45.6 ± 6.7 | 55.1 ± 4.3 | –
9 | N#Cc1c(-c2ccccc2)nc(N)nc1-c1ccc(Br)cc1 [18k] | 9.19 ± 2.81 | 21.9 ± 5 | –
10 | CCNc1nc(-c2ccccc2)c(C#N)c(-c2cc(Cl)cc(Cl)c2)n1 [19ak] | 135 ± 20 | – | Ki (human A1AR; [3]): 136 nM
11 | CNc1nc(-c2ccccc2)c(C#N)c(-c2cccc(O)c2)n1 [19o] | 2.48 ± 0.71 | 105 ± 8 | –
12 | N#Cc1c(-c2ccccc2)nc(Nc2ccccc2)nc1-c1cccnc1 [19bf] | – | 27.1 ± 5.7 | Ki (human A2BAR): 29.4 ± 4 nM
13 | N#Cc1cccc(-c2nc(Nc3ccccc3)nc(-c3ccccc3)c2C#N)c1 [19u] | 18.2 ± 3.1 | – | Ki (human A2BAR): 16.4 ± 2.2 nM
14 | N#Cc1c(-c2ccccc2)nc(N)nc1-c1cc(Cl)cc(Cl)c1 [18s] | 15.9 ± 2.11 | 95.4 ± 16.5 | –
15 | CNc1nc(-c2ccccc2)c(C#N)c(-c2ccncc2)n1 [19bb] | 56.9 ± 6.7 | – | Exp relative binding affinity (ΔΔGbind) (human A1AR; Lig 2 relative to Lig 1 = 19a): 1.08 kcal/mol; Exp absolute binding affinity (ΔGbind) (human A1AR): -9.88 kcal/mol
16 | N#Cc1cccc(-c2nc(N)nc(-c3ccccc3)c2C#N)c1 [18i] | 6.49 ± 1.14 | 84.1 ± 11.7 | –
17 | N#Cc1c(-c2ccccc2)nc(N)nc1-c1ccc2ccccc2c1 [18af] | 8.27 ± 2.1 | 5.78 ± 1.16 | –
18 | CNc1nc(-c2ccccc2)c(C#N)c(-c2cccc(OC)c2)n1 [19q] | 13.2 ± 4.1 | 82.6 ± 4.9 | –
19 | N#Cc1c(-c2ccccc2)nc(Nc2ccccc2)nc1-c1cccc(Cl)c1 [19n] | – | 46.3 ± 2.5 | –
20 | N#Cc1c(-c2ccccc2)nc(N)nc1-c1ccsc1 [18aa] | 5.25 ± 2.16 | 20.6 ± 2.7 | –
21 | N#Cc1c(-c2ccccc2)nc(N)nc1-c1cccnc1 [18ac] | 19.6 ± 1.47 | 36.4 ± 5.7 | –
22 | CNc1nc(-c2ccccc2)c(C#N)c(-c2ccco2)n1 [19at] | 6.66 ± 2.4 | 401 ± 25 | Exp relative binding affinity (ΔΔGbind) (human A1AR; Lig 2 relative to Lig 1 = 19a): -0.19 kcal/mol; Exp relative binding affinity (ΔΔGbind) (human A1AR; Lig 2 relative to Lig 1 = 19ax): -4.33 kcal/mol; Exp absolute binding affinity (ΔGbind) (human A1AR): -11.15 kcal/mol; Ki (human A2AAR; [4]): 402 nM
23 | COc1cccc(-c2nc(Nc3ccccc3)nc(-c3ccccc3)c2C#N)c1 [19r] | 95.5 ± 11.7 | 133 ± 11 | –
24 | COc1cc(-c2nc(N)nc(-c3ccccc3)c2C#N)cc(OC)c1OC [18v] | 2.58 ± 0.05 | 0.95 ± 0.07 | –
25 | N#Cc1c(-c2ccccc2)nc(Nc2ccccc2)nc1-c1ccc(F)cc1 [19w] | 36.3 ± 4.1 | – | Ki (human A2BAR): 51.7 ± 3.1 nM
26 | N#Cc1c(-c2ccccc2)nc(N)nc1-c1ccc(F)cc1F [18o] | 4 ± 1.82 | 15.5 ± 2.21 | –

Row | SMILES | Ki (human A1AR; [1]) [nM] | Ki (human A2AAR; [2]) [nM] | other results
27 | COc1ccc(-c2nc(N)nc(-c3ccccc3)c2C#N)cc1 [18l] | 7.16 ± 2.03 | 46 ± 3.2 | –
28 | CNc1nc(-c2ccccc2)c(C#N)c(-c2ccoc2)n1 [19ax] | – | – | Exp absolute binding affinity (ΔGbind) (human A1AR): -6.82 kcal/mol
29 | N#Cc1c(-c2ccccc2)nc(Nc2ccccc2)nc1-c1ccsc1 [19ba] | – | 102 ± 27 | –
30 | N#Cc1c(-c2ccc(F)cc2)nc(N)nc1-c1ccc2c(c1)OCO2 [18ak] | 12.5 ± 2.3 | 61 ± 4.9 | –
31 | Cc1ccc(-c2nc(Nc3ccccc3)nc(-c3ccccc3)c2C#N)cc1 [19ae] | 37.9 ± 5.7 | 157 ± 16 | Ki (human A2AAR; [4]): 158 nM
32 | N#Cc1c(-c2ccccc2)nc(N)nc1-c1ccccc1F [18b] | 6.44 ± 1.25 | 17.6 ± 2.8 | –
33 | CCNc1nc(-c2ccccc2)c(C#N)c(-c2ccccc2)n1 [19b] | 5.82 ± 1.16 | 357 ± 21 | –
34 | Cc1ccc(-c2nc(N)nc(-c3ccccc3)c2C#N)cc1 [18n] | 5.38 ± 1.36 | 8.93 ± 0.12 | –
35 | CNc1nc(-c2ccccc2)c(C#N)c(-c2ccccc2F)n1 [19d] | 29.5 ± 2.3 | – | Exp relative binding affinity (ΔΔGbind) (human A1AR; Lig 2 relative to Lig 1 = 19a): 0.69 kcal/mol; Exp absolute binding affinity (ΔGbind) (human A1AR): -10.27 kcal/mol; Ki (human A2BAR): 47.8 ± 3.8 nM
36 | COc1ccccc1-c1nc(N)nc(-c2ccccc2)c1C#N [18d] | 13.1 ± 3.2 | 17.7 ± 2.1 | –
37 | CNc1nc(-c2ccccc2)c(C#N)c(-c2ccc(OC)cc2)n1 [19ab] | 57.5 ± 2.7 | – | Exp absolute binding affinity (ΔGbind) (human A1AR): -9.87 kcal/mol
38 | CNc1nc(-c2ccccc2)c(C#N)c(-c2cc(OC)c(OC)c(OC)c2)n1 [19ar] | 11.7 ± 3.1 | 3.63 ± 0.88 | –
39 | CCNc1nc(-c2ccccc2)c(C#N)c(-c2cccc(Cl)c2)n1 [19m] | 5.1 ± 1.8 | 295 ± 27 | –
40 | COc1ccc(-c2nc(N)nc(-c3ccc(OC)cc3)c2C#N)cc1 [18al] | 74.3 ± 3.4 | – | –
41 | N#Cc1c(-c2ccccc2)nc(N)nc1-c1ccccc1 [18a] | – | 18.6 ± 3.4 | –
42 | N#Cc1c(-c2ccccc2)nc(N)nc1-c1ccc(F)cc1 [18j] | 4.19 ± 1.16 | 16.3 ± 2.9 | –
43 | N#Cc1c(-c2ccccc2)nc(N)nc1-c1ccc2c(c1)OCO2 [18u] | – | 10.2 ± 1.09 | Ki (human A2BAR): 43.3 ± 4.2 nM
44 | CNc1nc(-c2ccccc2)c(C#N)c(-c2ccccc2)n1 [19a] | 9.14 ± 2.21 | 711 ± 43 | Exp relative binding affinity (ΔΔGbind) (human A1AR; Lig 2 relative to Lig 1 = 19ad): -0.66 kcal/mol; Exp absolute binding affinity (ΔGbind) (human A1AR): -10.96 kcal/mol
45 | COc1cc(-c2nc(Nc3ccccc3)nc(-c3ccccc3)c2C#N)cc(OC)c1OC [19as] | 76.5 ± 9.1 | 15.8 ± 3.7 | –
46 | COc1ccc(-c2nc(Nc3ccccc3)nc(-c3ccccc3)c2C#N)cc1 [19ac] | – | 51.4 ± 3.7 | Ki (human A2BAR): 186 ± 15 nM
47 | N#Cc1c(-c2ccccc2)nc(N)nc1-c1ccoc1 [18z] | 18.7 ± 3.4 | 52.1 ± 5.1 | –
48 | CNc1nc(-c2ccccc2)c(C#N)c(-c2ccc(C)cc2)n1 [19ad] | 28 ± 9.3 | – | Exp absolute binding affinity (ΔGbind) (human A1AR): -10.30 kcal/mol; Ki (human A2BAR): 474 ± 32 nM
49 | COc1ccc(-c2nc(N)nc(-c3ccccc3)c2C#N)c(OC)c1 [18q] | 3.98 ± 0.74 | 10.2 ± 1.83 | –
50 | CNc1nc(-c2ccccc2)c(C#N)c(-c2cccc(F)c2)n1 [19j] | 28.5 ± 2.7 | – | Exp relative binding affinity (ΔΔGbind) (human A1AR; Lig 2 relative to Lig 1 = 19a): 0.67 kcal/mol; Exp relative binding affinity (ΔΔGbind) (human A1AR; Lig 2 relative to Lig 1 = 19s): 1.34 kcal/mol; Exp relative binding affinity (ΔΔGbind) (human A1AR; Lig 2 relative to Lig 1 = 19v): 0.12 kcal/mol; Exp absolute binding affinity (ΔGbind) (human A1AR): -10.29 kcal/mol; Ki (human A2BAR): 358 ± 27 nM
51 | N#Cc1c(-c2ccccc2)nc(N)nc1-c1ccc(-c2ccccc2)cc1 [18ag] | 6500 ± 451 | – | –
52 | N#Cc1c(-c2cccc(Cl)c2)nc(N)nc1-c1cc(Cl)cc(Cl)c1 [18ai] | 7.81 ± 1.43 | 190 ± 22 | –
